Experimental data reported in patent US6465490B1, “Sulfuric acid mono-[3({1-[2-(4-fluoro-phenyl)-ethyl]-piperidin-4-yl}-hydroxy-methyl)-2-methoxy-phenyl]ester” (Aventis Pharmaceuticals Inc., priority 1999, dated 2002).

Experiment: Bovine Brain Endothelial Cells (BBMEC) transport studies, in vitro blood-brain barrier permeability
Assay type: in vitro ADME
Details: mean ± standard deviation
Description: The compounds of this invention are capable of crossing the blood-brain barrier (BBB) as shown by their ability to penetrate across a membrane of a monolayer of bovine brain microvessel endothelial cells, an in vitro model for B3B permeability.
Bovine Brain Endothelial Cells (BBMEC) TIransport Studies
The procedure was performed according to: Kenneth L. Audus et al., Brain Microvessel Endothelial Cell Culture System (Chapter 13) pp 239-258. In Models for Assessing Drug Absorption and Metabolism, Ronald T. Borchardt et al. eds., Plenum Press, New York 1996, incorporated herein by reference.

Work on `COc1c(O[Si](C(C)C)(C(C)C)C(C)C)cccc1C(OC(=O)[C@@H](OC)c1ccccc1)C1CCN(CCc2ccc(F)cc2)CC1` (stereo partly drawn) [Example 1C, (S)-Methoxy-2-phenyl-acetic acid {1-[2-(4-fluoro-phenyl)-ethyl]-piperidin-4-yl}-(2-methoxy-3-triisopropylsilanyloxy-phenyl)-methyl ester] yielded a Papp at 5.4 µM (5.4 μM) of 41.4 ± 16.4 ×10⁻⁶ cm/s and a Papp at 16 µM (16 μM) of 52.5 ± 9.5 ×10⁻⁶ cm/s.
